Laboratory results: US20250042875A1, “PESTICIDALLY ACTIVE PYRIDAZINONE COMPOUNDS” (SYNGENTA CROP PROTECTION AG, priority 2021, published 2025)

How the values were obtained:
Assay type in all cases: in vivo
Spodoptera littoralis = assay: Activity against Spodoptera littoralis (Egyptian cotton leaf worm), cotton leaf discs, L1 larvae; details: foliar, 72 h, application rate 200 ppm, 3 days after infestation, read-out: control in at least one of the three categories (mortality, anti-feedant effect, or growth inhibition)
Method: Example B8: Activity Against Spodoptera littoralis (Egyptian Cotton Leaf Worm)
Cotton leaf discs were placed onto agar in 24-well microtiter plates and sprayed with aqueous test solutions prepared from 10′000 ppm DMSO stock solutions. After drying the leaf discs were infested with five L1 larvae. The samples were assessed for mortality, anti-feeding effect, and growth inhibition in comparison to untreated samples 3 days after infestation. Control of Spodoptera littoralis by a test sample is given when at least one of the categories mortality, anti-feedant effect, and growth inhibition is higher than the untreated sample.

Myzus persicae = assay: Activity against Myzus persicae (green peach aphid), intrinsic activity; details: 120 h, test rate 12 ppm, 5 days after infestation
Excerpt: Example B6: Activity Against Myzus persicae (Green Peach Aphid). Intrinsic Activity
Test compounds prepared from 10′000 ppm DMSO stock solutions were applied by pipette into 24-well microtiter plates and mixed with sucrose solution. The plates were closed with a stretched Parafilm. A plastic stencil with 24 holes was placed onto the plate and infested pea seedlings were placed directly on the Parafilm. The infested plate was closed with a gel blotting paper and another plastic stencil and then turned upside down. The samples were assessed for mortality 5 days after infestation.

Euschistus heros = assay: Activity against Euschistus heros (neotropical brown stink bug), soybean leaves, N2 nymphs; details: 120 h, application rate 200 ppm, 5 days after infestation, read-out: effect in at least one of the two categories (mortality or growth inhibition)
Method: Example B3: Activity Against Euschistus heros (Neotropical Brown Stink Bug)
Soybean leaves on agar in 24-well microtiter plates were sprayed with aqueous test solutions prepared from 10′000 ppm DMSO stock solutions. After drying the leaves were infested with N2 nymphs. The samples were assessed for mortality and growth inhibition in comparison to untreated samples 5 days after infestation.

Diabrotica balteata = assay: Activity against Diabrotica balteata (corn root worm), maize sprouts, L2 larvae; details: 96 h, application rate 200 ppm, 4 days after infestation, read-out: control in at least one of the two categories (mortality or growth inhibition)
Method: Example B2: Activity Against Diabrotica Balteata (Corn Root Worm)
Maize sprouts placed onto an agar layer in 24-well microtiter plates were treated with aqueous test solutions prepared from 10′000 ppm DMSO stock solutions by spraying. After drying, the plates were infested with L2 larvae (6 to 10 per well). The samples were assessed for mortality and growth inhibition in comparison to untreated samples 4 days after infestation.

Chilo suppressalis = assay: Activity against Chilo suppressalis (striped rice stemborer), artificial diet, L2 larvae; details: 144 h, application rate 200 ppm, 6 days after infestation, read-out: control in at least one of the three categories (mortality, anti-feedant effect, or growth inhibition)
Method: Example B1: Activity Against Chilo suppressalis (Striped Rice Stemborer)
24-well microtiter plates with artificial diet were treated with aqueous test solutions prepared from 10′000 ppm DMSO stock solutions by pipetting. After drying, the plates were infested with L2 larvae (6-8 per well). The samples were assessed for mortality, anti-feeding effect, and growth inhibition in comparison to untreated samples 6 days after infestation. Control of Chilo suppressalis by a test sample is given when at least one of the categories mortality, anti-feedant effect, and growth inhibition is higher than the untreated sample.

Plutella xylostella = assay: Activity against Plutella xylostella (diamond back moth), artificial diet, eggs; details: 192 h, application rate 200 ppm, 8 days after infestation, read-out: control in at least one of the two categories (mortality or growth inhibition)
Method: Example B7: Activity Against Plutella xylostella (Diamond Back Moth)
24-well microtiter plates with artificial diet were treated with aqueous test solutions prepared from 10′000 ppm DMSO stock solutions by pipetting. After drying, Plutella eggs were pipetted through a plastic stencil onto a gel blotting paper and the plate was closed with it. The samples were assessed for mortality and growth inhibition in comparison to untreated samples 8 days after infestation.

C[C@H](NC(=O)c1cc(Cl)cc(S(=O)(=O)C(F)(F)F)c1)c1ncnn1C1=NN(C)C(=O)CC1 [P21, 3-chloro-N-[(1S)-1-[2-(1-methyl-6-oxo-4,5-dihydropyridazin-3-yl)-1,2,4-triazol-3-yl]ethyl]-5-(trifluoromethylsulfonyl) benzamide]
≥ 80%: percent control (mortality, anti-feedant effect or growth inhibition) at 200 ppm (Spodoptera littoralis) | mortality at 12 ppm (Myzus persicae) | percent effect (mortality or growth inhibition) at 200 ppm (Euschistus heros) | percent control (mortality or growth inhibition) at 200 ppm (Diabrotica balteata) | percent control (mortality, anti-feedant effect or growth inhibition) at 200 ppm (Chilo suppressalis) | percent control (mortality or growth inhibition) at 200 ppm (Plutella xylostella)

CC(NC(=O)c1cc(Cl)cc(C(F)F)c1)c1nccnc1-c1ccc(=O)n(C)n1 (stereo not shown) [P41, 3-chloro-5-(difluoromethyl)-N-[1-[3-(1-methyl-6-oxo-pyridazin-3-yl)pyrazin-2-yl]ethyl]benzamide]
≥ 80%: percent control (mortality, anti-feedant effect or growth inhibition) at 200 ppm (Spodoptera littoralis) | mortality at 12 ppm (Myzus persicae) | percent control (mortality or growth inhibition) at 200 ppm (Diabrotica balteata) | percent control (mortality, anti-feedant effect or growth inhibition) at 200 ppm (Chilo suppressalis) | percent control (mortality or growth inhibition) at 200 ppm (Plutella xylostella)

CC(NC(=O)c1cc(C(F)(F)F)cc(C(F)(F)F)c1)c1nccnc1-c1ccc(=O)n(C)n1 (stereo not shown) [P3, N-[1-[3-(1-methyl-6-oxo-pyridazin-3-yl)pyrazin-2-yl]ethyl]-3,5-bis(trifluoromethyl)benzamide]
≥ 80%: percent control (mortality, anti-feedant effect or growth inhibition) at 200 ppm (Spodoptera littoralis) | mortality at 12 ppm (Myzus persicae) | percent control (mortality or growth inhibition) at 200 ppm (Diabrotica balteata) | percent control (mortality, anti-feedant effect or growth inhibition) at 200 ppm (Chilo suppressalis) | percent control (mortality or growth inhibition) at 200 ppm (Plutella xylostella)

CC(NC(=O)c1cc(Br)cc(C(F)(F)F)c1)c1nccnc1-c1cn(C)c(=O)cn1 (stereo not shown) [P48, 3-bromo-N-[1-[3-(4-methyl-5-oxo-pyrazin-2-yl)pyrazin-2-yl]ethyl]-5-(trifluoromethyl)benzamide]
≥ 80%: percent control (mortality, anti-feedant effect or growth inhibition) at 200 ppm (Spodoptera littoralis) | mortality at 12 ppm (Myzus persicae) | percent control (mortality or growth inhibition) at 200 ppm (Diabrotica balteata) | percent control (mortality, anti-feedant effect or growth inhibition) at 200 ppm (Chilo suppressalis) | percent control (mortality or growth inhibition) at 200 ppm (Plutella xylostella)

CC(NC(=O)c1cc(Br)cc(I)c1)c1nccnc1-c1ccc(=O)n(C)n1 (stereo not shown) [P15, 3-bromo-5-iodo-N-[1-[3-(1-methyl-6-oxo-pyridazin-3-yl)pyrazin-2-yl]ethyl]benzamide]
≥ 80%: percent control (mortality, anti-feedant effect or growth inhibition) at 200 ppm (Spodoptera littoralis) | mortality at 12 ppm (Myzus persicae) | percent control (mortality, anti-feedant effect or growth inhibition) at 200 ppm (Chilo suppressalis) | percent control (mortality or growth inhibition) at 200 ppm (Plutella xylostella)

C[C@H](NC(=O)c1cc(I)cc(C(F)(F)F)c1)c1ncnn1-c1ccc(=O)n(C)n1 [P36, 3-iodo-N-[(1S)-1-[2-(1-methyl-6-oxo-pyridazin-3-yl)-1,2,4-triazol-3-yl]ethyl]-5-(trifluoromethyl)benzamide]
≥ 80%: percent control (mortality, anti-feedant effect or growth inhibition) at 200 ppm (Spodoptera littoralis) | mortality at 12 ppm (Myzus persicae) | percent effect (mortality or growth inhibition) at 200 ppm (Euschistus heros) | percent control (mortality or growth inhibition) at 200 ppm (Diabrotica balteata) | percent control (mortality, anti-feedant effect or growth inhibition) at 200 ppm (Chilo suppressalis) | percent control (mortality or growth inhibition) at 200 ppm (Plutella xylostella)

C[C@H](NC(=O)c1cc(Cl)cc(C(F)F)c1)c1ncnn1-c1ccc(=O)n(C)n1 [P42, 3-chloro-5-(difluoromethyl)-N-[(1S)-1-[2-(1-methyl-6-oxo-pyridazin-3-yl)-1,2,4-triazol-3-yl]ethyl]benzamide]
≥ 80%: percent control (mortality, anti-feedant effect or growth inhibition) at 200 ppm (Spodoptera littoralis) | mortality at 12 ppm (Myzus persicae) | percent effect (mortality or growth inhibition) at 200 ppm (Euschistus heros) | percent control (mortality or growth inhibition) at 200 ppm (Diabrotica balteata) | percent control (mortality or growth inhibition) at 200 ppm (Plutella xylostella)

CC(NC(=O)c1cc(Cl)cc(I)c1)c1nccnc1-c1ccc(=O)n(C)n1 (stereo not shown) [P12, 3-chloro-5-iodo-N-[1-[3-(1-methyl-6-oxo-pyridazin-3-yl)pyrazin-2-yl]ethyl]benzamide]
≥ 80%: percent control (mortality, anti-feedant effect or growth inhibition) at 200 ppm (Spodoptera littoralis) | mortality at 12 ppm (Myzus persicae) | percent control (mortality or growth inhibition) at 200 ppm (Diabrotica balteata) | percent control (mortality, anti-feedant effect or growth inhibition) at 200 ppm (Chilo suppressalis) | percent control (mortality or growth inhibition) at 200 ppm (Plutella xylostella)

CC(NC(=O)c1cc(Br)cc(Br)c1)c1nccnc1-c1ccc(=O)n(C)n1 (stereo not shown) [P13, 3,5-dibromo-N-[1-[3-(1-methyl-6-oxo-pyridazin-3-yl)pyrazin-2-yl]ethyl]benzamide]
≥ 80%: percent control (mortality, anti-feedant effect or growth inhibition) at 200 ppm (Spodoptera littoralis) | mortality at 12 ppm (Myzus persicae) | percent control (mortality or growth inhibition) at 200 ppm (Diabrotica balteata) | percent control (mortality, anti-feedant effect or growth inhibition) at 200 ppm (Chilo suppressalis) | percent control (mortality or growth inhibition) at 200 ppm (Plutella xylostella)

CC(NC(=O)c1cc(Br)nc(C2(C#N)CC2)c1)c1nccnc1-c1ccc(=O)n(C)n1 (stereo not shown) [P38, 2-bromo-6-(1-cyanocyclopropyl)-N-[1-[3-(1-methyl-6-oxo-pyridazin-3-yl)pyrazin-2-yl]ethyl]pyridine-4-carboxamide]
≥ 80%: percent control (mortality, anti-feedant effect or growth inhibition) at 200 ppm (Spodoptera littoralis) | percent control (mortality, anti-feedant effect or growth inhibition) at 200 ppm (Chilo suppressalis) | percent control (mortality or growth inhibition) at 200 ppm (Plutella xylostella)

C[C@H](NC(=O)c1cc(Br)nc(C2(C#N)CC2)c1)c1ncnn1-c1ccc(=O)n(C)n1 [P39, 2-bromo-6-(1-cyanocyclopropyl)-N-[(1S)-1-[2-(1-methyl-6-oxo-pyridazin-3-yl)-1,2,4-triazol-3-yl]ethyl]pyridine-4-carboxamide]
≥ 80%: percent effect (mortality or growth inhibition) at 200 ppm (Euschistus heros)

CC(NC(=O)c1cc(Cl)cc(S(=O)(=O)C(F)(F)F)c1)c1nccnc1-c1ccc(=O)n(C)n1 (stereo not shown) [P31, 3-chloro-N-[1-[3-(1-methyl-6-oxo-pyridazin-3-yl)pyrazin-2-yl]ethyl]-5-(trifluoromethylsulfonyl) benzamide]
≥ 80%: percent control (mortality, anti-feedant effect or growth inhibition) at 200 ppm (Spodoptera littoralis) | mortality at 12 ppm (Myzus persicae) | percent control (mortality, anti-feedant effect or growth inhibition) at 200 ppm (Chilo suppressalis) | percent control (mortality or growth inhibition) at 200 ppm (Plutella xylostella)

C[C@H](NC(=O)c1cc(C(F)(F)F)cc(C2(C#N)CC2)c1)c1ncnn1-c1ccc(=O)n(C)n1 [P25, 3-(1-cyanocyclopropyl)-N-[(1S)-1-[2-(1-methyl-6-oxo-pyridazin-3-yl)-1,2,4-triazol-3-yl]ethyl]-5-(trifluoromethyl)benzamide]
≥ 80%: percent control (mortality, anti-feedant effect or growth inhibition) at 200 ppm (Spodoptera littoralis) | mortality at 12 ppm (Myzus persicae) | percent effect (mortality or growth inhibition) at 200 ppm (Euschistus heros) | percent control (mortality or growth inhibition) at 200 ppm (Diabrotica balteata) | percent control (mortality, anti-feedant effect or growth inhibition) at 200 ppm (Chilo suppressalis) | percent control (mortality or growth inhibition) at 200 ppm (Plutella xylostella)

C[C@H](NC(=O)c1cc(Cl)cc(OC(F)F)c1)c1ncnn1-c1ccc(=O)n(C)n1 [P37, 3-chloro-5-(difluoromethoxy)-N-[(1S)-1-[2-(1-methyl-6-oxo-pyridazin-3-yl)-1,2,4-triazol-3-yl]ethyl]benzamide]
≥ 80%: mortality at 12 ppm (Myzus persicae) | percent effect (mortality or growth inhibition) at 200 ppm (Euschistus heros) | percent control (mortality or growth inhibition) at 200 ppm (Diabrotica balteata) | percent control (mortality or growth inhibition) at 200 ppm (Plutella xylostella)
